Data as given in patent publication US9605029B2, “Antibody-binding peptide” (NATIONAL INSTITUTE OF ADVANCED INDUSTRIAL SCIENCE AND …, priority 2013, dated 2017).

Test system: Fc region (Jackson ImmunoResearch Laboratories, Inc.) labeled with horseradish peroxidase (HRP)
Assay: ELISA of recombinant phages displaying polypeptides (Example 2, 6)
Format: binding, human
Conditions: recombinant T7 phage displaying the polypeptide; absorbance at 415 nm; control 0.098
Method: 6) In this section, it will be stated as an example that the binding activity of recombinant phages transformed by nucleic acids encoding amino acid sequences represented by SEQ ID NOs: 26, 27, 30 to 55, 57, 63 to 72 and 79 to 81 was measured by Enzyme Linked Immuno-Sorbent Assay (ELISA).
DNA molecules encoding amino acid sequences of SEQ ID NOs: 26, 27, 30 to 55, 57, 63 to 72 and 79 to 81 were amplified by a polymerase chain reaction (PCR) using KOD DNA polymerase (TOYOBO) under the reaction conditions according to the accompanying manual. Each of the amplified DNA was digested with restriction enzymes EcoRI and HindIII, and ligated to the 3′ terminal of g10 gene on T7 phage genomic DNA. Ligation to T7 phage genomic DNA was performed by use of a sample attached to T7Select10-3 Cloning Kit (Novagen) under the reaction conditions and in accordance with the procedure described in T7Select (registered trade mark) System Manual. Using T7 phage genomic DNA ligated, T7 phage was packaged in a test tube by T7Select Packaging Kit (Novagen) under the reaction conditions in accordance with T7Select (registered trade mark) System Manual (Novagen). Subsequently, phage plaque was formed in accordance with T7Select (registered trade mark) System Manual (Novagen). From each of the plaques, a recombinant phage displaying the polypeptide was isolated. To MICROTEST (registered trade mark) 96 (BECTON, DICKINSON AND COMPANY), a culture solution (0.2 mL) of Escherichia coli BL5403 strain cultured in LB medium until O.D.600 reached 1.0 was poured to infect with the Escherichia coli cells each of the recombinant phages isolated from plaques and allowed to stand still 37° C. for 12 hours to proliferate phages. The culture solution (10 μL) containing these phages was diluted in 90 μL of TBS buffer (50 mM Tris-HCl, 150 mM NaCl, pH 7.4) to prepare measurement samples.
The measurement samples were poured to MEDISORP 96 well microplate (Nunc) and allowed to stand still for one hour to allow the phage to physically adsorb to the plate. The supernatant was removed and SuperBlock (registered trade mark) T20 (TBS) Blocking Buffer (Thermo […]) (150 μL) was poured to the plate and allowed to stand still for one hour to block the surface of the plate. The plate was washed three times with TBS-T buffer (50 mM Tris-HCl, 150 mM NaCl, 0.1% Tween 20 (registered trade mark), pH 7.4). To the plate, TBS-T buffer (100 μL) containing an Fc region (Jackson ImmunoResearch Laboratories, Inc.) (0.2 μg/mL) labeled with horseradish peroxidase (HRP) was added and allowed to stand still for one hour. After the plate was washed three times with TBS-T buffer, ABTS One Component HRP Microwell Substrate (BioFX) (100 μL) was poured to the plate. The binding activity was detected through a […]. The absorbance at 415 nm (O.D.415) was measured by a microplate absorbance reader Sunrise R (TECAN GROUP LTD.). TBS-T buffer containing no phages was used as a negative control in a control experiment.
ELISA results of the recombinant phages displaying polypeptides containing amino acid sequences represented by SEQ ID NOs: 26, 27 and 30 to 55 and the recombinant phages displaying polypeptides containing amino acid sequences represented by SEQ ID NOs: 57, 63 to 72 and 79 to 81 are shown in Table 5A and Table 5B, respectively.

| O.D. 415 | Substance |
| --- | --- |
| 0.229 | 57 (GPGISAFSPGRGVYDPETGTWYDAAWHLGELVWATYYDPETGTWEPDWQRMLGQ; IgG binding peptide, p17) [compound 57] |
| 0.272 | 63 (SNFVRSPSAWYDPETGTWYDAAWHLGELVWATYYDPETGTWEPDWQRMLGQ; IgG binding peptide, p2_2) [compound 63] |
| 0.213 | 64 (IPYGFPGRGEYDPETGTWYDAAWHLGELVWATYYDPETGTWEPDWQRMLGQ; IgG binding peptide, p4) [compound 64] |
| 0.291 | 65 (GPYNIPDSAVYDPETGTWYDAAWHLGELVWATYYDPETGTWEPDWQRMLGQ; IgG binding peptide, p5) [compound 65] |
| 0.182 | 66 (WPLNAPSSAFYDPETGTWYDAAWHLGELVWATYYDPETGTWEPDWQRMLGQ; IgG binding peptide, p13) [compound 66] |
| 0.25 | 67 (VPPRFSSSAQYDPETGTWYDAAWHLGELVWATYYDPETGTWEPDWQRMLGQ; IgG binding peptide, p14) [compound 67] |
| 0.186 | 68 (FLVGLHAGAVYDPETGTWYDAAWHLGELVWATYYDPETGTWEPDWQRMLGQ; IgG binding peptide, p15_2) [compound 68] |
| 0.201 | 69 (VVRVDHSSAVYDPETGTWYDAAWHLGELVWATYYDPETGTWEPDWQRMLGQ; IgG binding peptide, p20) [compound 69] |
| 0.189 | 70 (WMEFYPGRGVYDPETGTWYDAAWHLGELVWATYYDPETGTWEPDWQRMLGQ; IgG binding peptide, p26) [compound 70] |
| 0.219 | 71 (DGVGPGSRGVYDPETGTWYDAAWHLGELVWATYYDPETGTWEPDWQRMLGQ; IgG binding peptide, p27) [compound 71] |
| 0.229 | 72 (FVSSLPNSAMYDPETGTWYDAAWHLGELVWATYYDPETGTWEPDWQRMLGQ; IgG binding peptide, p28) [compound 72] |
| 0.329 | 79 (GSCKFSSSCHYDPETGTWYDAAWHLGELVWATYYDPETGTWEPDWQRMLGQ; IgG binding peptide, p24_2) [compound 79] |
| 0.215 | 80 (LIPPGGISPWYDPETGTWYDAAWHLGELVWATYYDPETGTWEPDWQRMLGQ; IgG binding peptide, p25_2) [compound 80] |
| 0.235 | 81 (LNDFLTPTAWYDPETGTWYDAAWHLGELVWATYYDPETGTWLPDWQTMAQK; IgG binding peptide, p31) [compound 81] |

Same assay, conditions: recombinant T7 phage displaying the polypeptide; absorbance at 415 nm; control 0.11

| Substance | O.D. 415 |
| --- | --- |
| 26 (DAAWHLGELVWATYYDPETGTWLPDWQTMAQK; IgG binding peptide, pep21) [compound 26] | 0.43 |
| 27 (DAAWHLGELVWATYYDPETGTWEPDWQRMLGQ; IgG binding peptide, pep24) [compound 27] | 0.289 |
| 30 (DAAWHLGELVWATYYDPETGTWEPDWKLMQRP; IgG binding peptide, pep7) [compound 30] | 0.287 |
| 31 (DAAWHLGELVWATYYDPETGTWQPDWDIMAGH; IgG binding peptide, pep25) [compound 31] | 0.295 |
| 32 (DAAWHLGELVWATYYDPETGTWLPDWDVMVRQ; IgG binding peptide, pep27) [compound 32] | 0.352 |
| 33 (DAAWHLGELVWATYYDPETGTWVPDWERMKQH; IgG binding peptide, pep31) [compound 33] | 0.305 |
| 34 (DAAWHLGELVWATYYDPETGTWEPDWSKMRPQ; IgG binding peptide, pep1) [compound 34] | 0.281 |
| 35 (DAAWHLGELVWATYYDPETGTWRPDWAVMATP; IgG binding peptide, pep2) [compound 35] | 0.32 |
| 36 (DAAWHLGELVWATYYDPETGTWKPDWRMMGVP; IgG binding peptide, pep3) [compound 36] | 0.287 |
| 37 (DAAWHLGELVWATYYDPETGTWLPDWDYMSSK; IgG binding peptide, pep4) [compound 37] | 0.235 |
| 38 (DAAWHLGELVWATYYDPETGTWMPDWDRMLRR; IgG binding peptide, pep5) [compound 38] | 0.29 |
| 39 (DAAWHLGELVWATYYDPETGTWTPDWNAMSQR; IgG binding peptide, pep6) [compound 39] | 0.273 |
| 40 (DAAWHLGELVWATYYDPETGTWQPDWKRMTSR; IgG binding peptide, pep10) [compound 40] | 0.251 |
| 41 (DAAWHLGELVWATYYDPETGTWQPDWGRMNSK; IgG binding peptide, pep12) [compound 41] | 0.274 |
| 42 (DAAWHLGELVWATYYDPETGTWAPDWNRMRDFNRSFREV; IgG binding peptide, pep29) [compound 42] | 0.273 |
| 43 (DAAWHLGELVWATYYDPETGTWVPDWDAMSSR; IgG binding peptide, pep15) [compound 43] | 0.813 |
| 44 (DAAWHLGELVWATYYDPETGTWIPDWTRMQTW; IgG binding peptide, pep16) [compound 44] | 0.243 |
| 45 (DAAWHLGELVWATYYDPETGTWKPDWQRMKLH; IgG binding peptide, pep17) [compound 45] | 0.249 |

More lines, now with the values ahead:

| O.D. 415 | Substance |
| --- | --- |
| 0.243 | 46 (DAAWHLGELVWATYYDPETGTWLPDWSQMRPQ; IgG binding peptide, pep18) [compound 46] |
| 0.255 | 47 (DAAWHLGELVWATYYDPETGTWLPDWDTMTPR; IgG binding peptide, pep19) [compound 47] |
| 0.373 | 48 (DAAWHLGELVWATYYDPETGTWQPDWSVMKSL; IgG binding peptide, pep20) [compound 48] |
| 0.346 | 49 (DAAWHLGELVWATYYDPETGTWVPDWDTMHAAINRSFREV; Artificial Sequence, pep22; IgG binding peptide) [compound 49] |
| 0.244 | 50 (DAAWHLGELVWATYYDPETGTWIPDWRAMSQF; IgG binding peptide, pep23) [compound 50] |
| 0.265 | 51 (DAAWHLGELVWATYYDPETGTWLPDWNLMGQH; IgG binding peptide, pep26) [compound 51] |
| 0.25 | 52 (DAAWHLGELVWATYYDPETGTWRPDWARMEPM; IgG binding peptide, pep28) [compound 52] |
| 0.279 | 53 (DAAWHLGELVWATYYDPETGTWKPDWQVMSPVSNRSFREV; IgG binding peptide, pep29) [compound 53] |
| 0.258 | 54 (DAAWHLGELVWATYYDPETGTWQPDWEIMRPF; IgG binding peptide, pep30) [compound 54] |
| 0.252 | 55 (EAWHLGELVWATYYDPETGTWRPDWSRMSGR; IgG binding peptide, pep11_2) [compound 55] |
